Source: patent US9006250B2, “4-amino-6-(heterocyclic)picolinates and 6-amino-2-(heterocyclic)pyrimidine-4-carboxylates and their use as herbicides” (Dow AgroSciences, LLC, priority 2013, dated 2015)

Experiments:
Assay in all cases: Post-Emergent Test II herbicidal activity
Format in all cases: in vivo
[1] = tested on: ABUTH: velvetleaf (Abutilon theophrasti); settings: post-emergence, 336 h, 14 days, read-out: Visual Growth Reduction (%) 14 Days After Application ABUTH; for pest or weed control at 35 g/ha: 35 g ai/ha; for pest or weed control at 70 g/ha: 70 g ai/ha; for pest or weed control at 140 g/ha: 140 g ai/ha
Experimental: (§1) Post-Emergent Test II: Seeds or nutlets of the desired test plant species were planted in Sun Gro Metro-Mix® 360 planting mixture, which typically has a pH of 6.0 to 6.8 and an organic matter content of about 30 percent, in plastic pots with a surface area of 64 square centimeters. When required to ensure good germination and healthy plants, a fungicide treatment and/or other chemical or physical treatment was applied. The plants were grown for 7-21 d in a greenhouse with an approximate 15 h photoperiod which was maintained at about 23-29° C. during the day and 22-28° C. during the night. Nutrients and water were added on a regular basis and supplemental lighting was provided with overhead metal halide 1000-Watt lamps as necessary. The plants were employed for testing when they reached the first or second true leaf stage.
(§2) A weighed amount, determined by the highest rate to be tested, of each test compound was placed in a 25 mL glass vial and was dissolved in 4 mL of a 97:3 v/v mixture of acetone and DMSO to obtain concentrated stock solutions. […] The concentrated stock solutions obtained were diluted with 20 mL of an aqueous mixture containing acetone, water, isopropyl alcohol, DMSO, Atplus 411F crop oil concentrate, and Triton® X-155 surfactant in a 48.5:39:10:1.5:1.0:0.02 v/v ratio to obtain spray solutions containing the highest application rates. Additional application rates were obtained by serial dilution of 12 mL of the high rate solution into a solution containing 2 mL of 97:3 v/v mixture of acetone and DMSO and 10 mL of an aqueous mixture containing acetone, water, isopropyl alcohol, DMSO, Atplus 411F crop oil concentrate, and Triton X®-155 surfactant in a 48.5:39:10:1.5:1.0:0.02 v/v ratio to obtain ½×, ¼×, ⅛× and 1/16× rates of the high rate. Compound requirements are based upon a 12 mL application volume at a rate of 187 liters per hectare (L/ha). Formulated compounds were applied to the plant material with an overhead Mandel track sprayer equipped with 8002E nozzles calibrated to deliver 187 L/ha over an application area of 0.503 square meters at a spray height of 18 inches […] above the average plant canopy height. Control plants were sprayed in the same manner with the solvent blank.
(§3) The treated plants and control plants were placed in a greenhouse as described above and watered by subirrigation to prevent wash-off of the test compounds. After 14 d, the condition of the test plants as compared with that of the untreated plants was determined visually and scored on a scale of 0 to 100 percent where 0 corresponds to no injury and 100 corresponds to complete kill.

[2] = tested on: BRSNN: oilseed rape, canola (Brassica napus); settings: post-emergence, 336 h, 14 days, read-out: Visual Growth Reduction (%) 14 Days After Application BRSNN; for pest or weed control at 35 g/ha: 35 g ai/ha; for pest or weed control at 70 g/ha: 70 g ai/ha; for pest or weed control at 140 g/ha: 140 g ai/ha
Experimental: as §1, §2, §3

[3] = tested on: CHEAL: lambsquarters (Chenopodium album); settings: post-emergence, 336 h, 14 days, read-out: Visual Growth Reduction (%) 14 Days After Application CHEAL; for pest or weed control at 35 g/ha: 35 g ai/ha; for pest or weed control at 70 g/ha: 70 g ai/ha; for pest or weed control at 140 g/ha: 140 g ai/ha
Experimental: as §1, §2, §3

[4] = tested on: CYPES: yellow nutsedge (Cyperus esculentus); settings: post-emergence, 336 h, 14 days, read-out: Visual Growth Reduction (%) 14 Days After Application CYPES; for pest or weed control at 35 g/ha: 35 g ai/ha; for pest or weed control at 70 g/ha: 70 g ai/ha; for pest or weed control at 140 g/ha: 140 g ai/ha
Experimental: as §1, §2, §3

[5] = tested on: ECHCG: barnyardgrass (Echinochloa crus-galli); settings: post-emergence, 336 h, 14 days, read-out: Visual Growth Reduction (%) 14 Days After Application ECHCG; for pest or weed control at 35 g/ha: 35 g ai/ha; for pest or weed control at 70 g/ha: 70 g ai/ha; for pest or weed control at 140 g/ha: 140 g ai/ha
Experimental: as §1, §2, §3

[6] = tested on: EPHHL: wild poinsettia (Euphorbia heterophylla); settings: post-emergence, 336 h, 14 days, read-out: Visual Growth Reduction (%) 14 Days After Application EPHHL; for pest or weed control at 35 g/ha: 35 g ai/ha; for pest or weed control at 70 g/ha: 70 g ai/ha; for pest or weed control at 140 g/ha: 140 g ai/ha
Experimental: as §1, §2, §3

[7] = tested on: HELAN: sunflower (Helianthus annuus); settings: post-emergence, 336 h, 14 days, read-out: Visual Growth Reduction (%) 14 Days After Application HELAN; for pest or weed control at 35 g/ha: 35 g ai/ha; for pest or weed control at 70 g/ha: 70 g ai/ha
Experimental: as §1, §2, §3

[8] = tested on: ORYSA: rice (Oryza sativa); settings: post-emergence, 336 h, 14 days, read-out: Visual Growth Reduction (%) 14 Days After Application ORYSA; for pest or weed control at 35 g/ha: 35 g ai/ha; for pest or weed control at 70 g/ha: 70 g ai/ha; for pest or weed control at 140 g/ha: 140 g ai/ha
Experimental: as §1, §2, §3

[9] = tested on: SETFA: giant foxtail (Setaria faberi); settings: post-emergence, 336 h, 14 days, read-out: Visual Growth Reduction (%) 14 Days After Application SETFA; for pest or weed control at 35 g/ha: 35 g ai/ha; for pest or weed control at 70 g/ha: 70 g ai/ha; for pest or weed control at 140 g/ha: 140 g ai/ha
Experimental: as §1, §2, §3

[10] = tested on: TRZAS: wheat, spring (Triticum aestivum); settings: post-emergence, 336 h, 14 days, read-out: Visual Growth Reduction (%) 14 Days After Application TRZAS; for pest or weed control at 35 g/ha: 35 g ai/ha; for pest or weed control at 70 g/ha: 70 g ai/ha; for pest or weed control at 140 g/ha: 140 g ai/ha
Experimental: as §1, §2, §3

[11] = tested on: ZEAMX: maize, corn (Zea mays); settings: post-emergence, 336 h, 14 days, read-out: Visual Growth Reduction (%) 14 Days After Application ZEAMX; for pest or weed control at 35 g/ha: 35 g ai/ha; for pest or weed control at 70 g/ha: 70 g ai/ha; for pest or weed control at 140 g/ha: 140 g ai/ha
Experimental: as §1, §2, §3

[12] = tested on: AMARE: redroot pigweed (Amaranthus retroflexus); settings: post-emergence, 336 h, 14 days, read-out: Visual Growth Reduction (%) 14 Days After Application AMARE
Experimental: as §1, §2, §3

Work on `COC(=O)c1nc(-c2cc3nonc3cc2F)nc(N)c1OC` [Compound 10, Methyl 6-amino-2-(6-fluorobenzo[c][1,2,5]oxadiazol-5-yl)-5-methoxypyrimidine-4-carboxylate] yielded a pest or weed control at 35 g/ha [1] of 0 to 29%, a pest or weed control at 70 g/ha [1] of 0 to 29% and a pest or weed control at 140 g/ha [1] of 0 to 29%. For the same compound, the pest or weed control at 35 g/ha [2] was 60 to 74%, the pest or weed control at 70 g/ha [2] was 75 to 84% and the pest or weed control at 140 g/ha [2] was 75 to 84%. It also gave a pest or weed control at 35 g/ha [3] of 0 to 29%, a pest or weed control at 70 g/ha [3] of 0 to 29% and a pest or weed control at 140 g/ha [3] of 0 to 29%. For the same compound, the pest or weed control at 35 g/ha [4] was 0 to 29%, the pest or weed control at 70 g/ha [4] was 0 to 29% and the pest or weed control at 140 g/ha [4] was 0 to 29%. It also gave a pest or weed control at 35 g/ha [5] of 0 to 29%, a pest or weed control at 70 g/ha [5] of 0 to 29% and a pest or weed control at 140 g/ha [5] of 0 to 29%. For the same compound, the pest or weed control at 35 g/ha [6] was 45 to 59%, the pest or weed control at 70 g/ha [6] was 60 to 74% and the pest or weed control at 140 g/ha [6] was 75 to 84%. For the same compound, the pest or weed control at 35 g/ha [7] was 0 to 29%, the pest or weed control at 70 g/ha [7] was 0 to 29% and the pest or weed control at 35 g/ha [8] was 0 to 29%. For the same compound, the pest or weed control at 70 g/ha [8] was 0 to 29%, the pest or weed control at 140 g/ha [8] was 0 to 29% and the pest or weed control at 35 g/ha [9] was 0 to 29%. It also gave a pest or weed control at 70 g/ha [9] of 0 to 29%, a pest or weed control at 140 g/ha [9] of 0 to 29% and a pest or weed control at 35 g/ha [10] of 0 to 29%. It also gave a pest or weed control at 70 g/ha [10] of 0 to 29%, a pest or weed control at 140 g/ha [10] of 0 to 29% and a pest or weed control at 35 g/ha [11] of 0 to 29%. For the same compound, the pest or weed control at 70 g/ha [11] was 0 to 29% and the pest or weed control at 140 g/ha [11] was 0 to 29%.

Compound `Nc1c(F)c(-c2ccc3nsnc3c2)nc(C(=O)O)c1Cl` [Compound 12] has a pest or weed control at 35 g/ha [1] of 85 to 94%, a pest or weed control at 70 g/ha [1] of 85 to 94% and a pest or weed control at 140 g/ha [1] of 85 to 94%. It also gave a pest or weed control at 35 g/ha ([12]; 35 g ai/ha) of 95 to 100%, a pest or weed control at 70 g/ha ([12]; 70 g ai/ha) of 95 to 100% and a pest or weed control at 140 g/ha ([12]; 140 g ai/ha) of 95 to 100%. For the same compound, the pest or weed control at 35 g/ha [2] was 75 to 84%, the pest or weed control at 70 g/ha [2] was 75 to 84% and the pest or weed control at 140 g/ha [2] was 75 to 84%. For the same compound, the pest or weed control at 35 g/ha [3] was 85 to 94%, the pest or weed control at 70 g/ha [3] was 95 to 100% and the pest or weed control at 140 g/ha [3] was 95 to 100%. The pest or weed control at 35 g/ha [4] was 0 to 29%, the pest or weed control at 70 g/ha [4] was 0 to 29% and the pest or weed control at 140 g/ha [4] was 0 to 29%. The pest or weed control at 35 g/ha [5] was 75 to 84%, the pest or weed control at 70 g/ha [5] was 75 to 84% and the pest or weed control at 140 g/ha [5] was 85 to 94%. The pest or weed control at 35 g/ha [6] was 95 to 100%, the pest or weed control at 70 g/ha [6] was 95 to 100% and the pest or weed control at 140 g/ha [6] was 95 to 100%. It also gave a pest or weed control at 35 g/ha [7] of 95 to 100%, a pest or weed control at 70 g/ha [7] of 95 to 100% and a pest or weed control at 140 g/ha ([7]; 140 g ai/ha) of 95 to 100%. For the same compound, the pest or weed control at 35 g/ha [8] was 0 to 29%, the pest or weed control at 70 g/ha [8] was 0 to 29% and the pest or weed control at 140 g/ha [8] was 0 to 29%. It also gave a pest or weed control at 35 g/ha [9] of 0 to 29%, a pest or weed control at 70 g/ha [9] of 0 to 29% and a pest or weed control at 140 g/ha [9] of 75 to 84%. It also gave a pest or weed control at 35 g/ha [10] of 0 to 29%, a pest or weed control at 70 g/ha [10] of 0 to 29% and a pest or weed control at 140 g/ha [10] of 0 to 29%. It also gave a pest or weed control at 35 g/ha [11] of 60 to 74%, a pest or weed control at 70 g/ha [11] of 60 to 74% and a pest or weed control at 140 g/ha [11] of 75 to 84%.
